Measured values as given in patent US20160235806A1, “Novel Peptide Compound for Inhibiting Restenosis and Promoting Re-Endothelialization and Method for Preparing the Same” (Chonnam National University Hospital, priority 2014, published 2016).

System: vascular smooth muscle cell (SMC)
Experiment: Effect on proliferation of vascular smooth muscle cell (SMC), XTT assay
Assay type: cell-based
Conditions: 1 uM; 1, 4, and 7 days; vs non-treated control that continuously grew until 7 days
Experimental: As cells used in a cell culture, the vascular smooth muscle cell (SMC) which is a smooth muscle cell, and the human umbilical vein endothelial cell (HUVEC) which is the cell for promoting vascular re-endothelialization were purchased from Korea Cell Line Bank, respectively. The cell culture was performed by culturing the vascular smooth muscle cell (SMC) and the human umbilical vein endothelial cell (HUVEC) in Dulbecoco's modified eagle medium (DMEM) with 10% fetal bovine serum (FBS) under conditions of 37° C. and 5% CO2. […]
(§1) 5×10^4 of SMC cells cultured according to Example 2 were cultured in the 24-well cell culture plate and then treated with 1 uM of the peptide compound prepared by Example 2 (hereinafter, referred to as ‘EVR-P’). […] After the reaction, 200 ul of the culture medium was transferred from each well to a 96 well cell culture dish, and degree of color change was measured from absorbance at a 450 nm wavelength by a spectroscopy.
as §1, with “the known Everolimus (EVR)(LC Laboratories).” for “the peptide compound prepared by Example 2 (hereinafter, referred to as ‘EVR-P’).”, “to the” for “to a”

CO[C@H]1C[C@@H]2CC[C@@H](C)[C@@](O)(O2)C(=O)C(=O)N2CCCC[C@H]2C(=O)O[C@H]([C@H](C)C[C@@H]2CC[C@@H](OCCO)[C@H](OC)C2)CC(=O)[C@H](C)/C=C(\C)[C@@H](O)[C@@H](OC)C(=O)[C@H](C)C[C@H](C)/C=C/C=C/C=C/1C [EVR, Everolimus]
SMC cell proliferation (XTT, absorbance at 450 nm): cell proliferation was inhibited
